Here are results for three compounds from US7468281B2, “Hollow fiber membrane sample preparation devices” (priority 2001, dated 2008).

Several values for one entry are separate records, joined by “and”; a condition that tells them apart may be missing. Equal values may be shown once.

Data set [1] can be described thus: LPME with different supported liquid membrane liquids, 96 well format device, HPLC analysis. The note with it: 0.1 M hydrochloric acid acceptor, 30 min.
Description: A mixture of acidic and basic drugs was used in this study, together with 0.1 M hydrochloric acid or 0.1 M sodium hydroxide as the acceptor phase.
Four different membrane forming small molecular weight organic liquids were investigated for selectivity differences, viz. hexyl ether, 4-nitrophenyl octyl ether, 1-octanol and 2-octyl-1-dodecanol. […] A cover plate of a 96 well block, carrying polypropylene fiber of 8 cm length, 600 μm inner diameter and 0.2 μm pore size, was dipped into each of these pure liquids for 5 seconds. These liquids were contained in different wells of a 96 well plate. The fibers in the cover plate were then washed by sonication in water for 15 seconds to remove excess material sticking to the fibers. A five component mixture of acidic and basic drugs was prepared from acetaminophen, naproxen, bamethane, quinidine and doxepin. Concentrations of the stock drug solutions were 1.0 mg/mL in each case. […] This is to maintain roughly the same level of analytical signal with each of these drugs. The mixture was diluted to 20 mL with water so that the concentrations of the three dilute drugs is in the range of 1 μg/mL, while those of the more concentrated drugs is in the range of 5 μg/mL. 500 μL of this diluted mixture of drugs is further diluted eight fold (to 4 mL) with water containing 250 μL of 2.0 M sodium hydroxide and used for extraction. […] The acceptor solution consisted of 25 μL of 0.1 M hydrochloric acid in each case. Extraction time with vibration was 30 min for each membrane liquid. The enriched acceptor solution was diluted three fold in each case and 25 μL of the resulting diluted solution used for analysis by high performance liquid chromatography on a Omnisphere C18 column using acetonitrile/pH 7.0 dipotassium hydrogen phosphate as mobile phase. A gradient from 5% acetonitrile to 40% was used to elute the strongly retained components in a reasonable time frame.
Data set [2] is described as follows: LPME of eight basic drugs from water with phosphate buffer acceptors of different pH, CE analysis. Format: physicochemical.
Data set [3] is described as follows: LPME of seven basic drugs with different hollow fibres (polypropylene, polysulfone). Format: physicochemical.
Data set [4] in a line: LPME of drugs from human plasma, urine and whole blood with vial format device, CZE analysis. Format: physicochemical.
Data set [5] in a line: LPME of seven basic drugs from water with different acidic acceptor phases, CE analysis. In kind it is physicochemical.
The mark [6] stands for this setting: supported liquid membrane 1-octanol.
The mark [7] stands for this setting: supported liquid membrane 2-octyl-1-dodecanol.
[8] abbreviates: supported liquid membrane 4-nitrophenyl octyl ether.
[9] abbreviates: supported liquid membrane Hexyl Ether.

For the compound `CN(C)CCC=C1c2ccccc2COc2ccccc21` [doxepin], the Enrichment was 58 in data set [1] (setting [6]), 147 in data set [1] (setting [7]), 227 in data set [1] (setting [8]) and 202 in data set [1] (setting [9]).

Turning to `CCOC(=O)C1(c2ccccc2)CCN(C)CC1` [pethidine], the “Enrichment (average of 3 replicates)” value in data set [2] (pH 2.5) is given as 160; in data set [2] (pH 3.5) it was 147; in data set [2] (pH 4.5), 131; in data set [2] (pH 5.5) it was 90; in data set [2] (pH 6.5), 34; in data set [2] (pH 7.5), 6. The “Enrichment (average of 3 replicates)” value in data set [3] was 125 and 128 and 122; in data set [5] (pH 1.1), 64; in data set [5] (pH 1.2), 139; in data set [5] (pH 1.3), 141; in data set [5] (pH 1.8) it was 90; in data set [5] (pH 1.9), 106. For the same compound, the “Enrichment (average of 3 replicates)” value in data set [5] (pH 2.1) is 128 and 144; in data set [5] (pH 2.3), 106; in data set [5] (pH 2.5), 98; in data set [5] (pH 2.7), 90; in data set [5] (pH 3), 131; in data set [5] (pH 3.1), 115. Further, the “Enrichment (average of 3 replicates)” value in data set [5] (pH 3.3) was 96 and 139; in data set [5] (pH 4.8), 106 and 91. Further, the Enrichment in data set [4] was 74%/7.4 and 72%/7.2. Moreover, the Extraction efficiency in data set [4] was 74%/7.4 and 72%/7.2.

As for `C=C[C@H]1C[N@@]2CC[C@H]1C[C@@H]2[C@@H](O)c1ccnc2ccc(OC)cc12` [quinidine], the Enrichment came to 100 in data set [1] (setting [6]), 20 in data set [1] (setting [7]), 52 in data set [1] (setting [8]) and 100 in data set [1] (setting [9]).
